The text below walks through data of US10328053B2 (Gilead Sciences, Inc., priority 2016, dated 2019).

The series is described as follows: Hepatic Stability Assay (in vitro half-life method). The series is classed as in vitro ADME. Also noted: dose or concentration left out as unconfirmed. The following applies: pooled cryopreserved hepatocytes, 37° C., 1×10^6 cells/mL, 0-6 hours, LC-MS/MS, 39.5 hours is the maximum detectable half life, read-out: t½ (converted). The method, then: Hepatic Stability Assay The metabolic stability of certain compounds disclosed herein was assessed in vitro in pooled cryopreserved hepatocytes using the in vitro half-life method. Incubations were at 37° C. and final concentrations in the incubations were 1×10^6 cells/mL and […] test concentration of the compound. Aliquots were sequentially removed after 0, 1, 3 and 6 hours and analyzed by LC-MS/MS. In vitro half-life was determined by measuring the rate of disappearance of the compound and then scaled to predicted hepatic clearance using the well-stirred model. […] As such, compounds having a value of 39.5 may have a half live that exceeds 39.5 hours.
In the case of `Cc1c(C(=O)C(=O)NC2(c3cnn[nH]3)CC2)c2n(c1C(=O)Nc1ccc(F)cc1)[C@@H]1C[C@@H]1C2` [Example 99, (1aR,6aR)-5-(2-((1-(1H-1,2,3-triazol-5-yl)cyclopropyl)amino)-2-oxoacetyl)-N-(4-fluorophenyl)-4-methyl-1,1a,6,6a-tetrahydrocyclopropa[b]pyrrolizine-3-carboxamide], the half-life is 9.6 h.

Turning to `Cc1c(C(=O)C(=O)NC2(c3nncs3)CC2)c2n(c1C(=O)Nc1ccnc(C(F)F)c1)[C@@H]1C[C@@H]1C2` [Example 62, (1aR,6aR)-5-(2-((1-(1,3,4-thiadiazol-2-yl)cyclopropyl)amino)-2-oxoacetyl)-N-(2-(difluoromethyl)pyridin-4-yl)-4-methyl-1,1a,6,6a-tetrahydrocyclopropa[b]pyrrolizine-3-carboxamide], the half-life is 5.3 h.

In the case of `Cc1c(C(=O)C(=O)NC2(C)CS(=O)(=O)C2)c2n(c1C(=O)Nc1ccc(F)c(Cl)c1)[C@@H]1C[C@@H]1C2` [Example 71, (1aR,6aR)—N-(3-chloro-4-fluorophenyl)-4-methyl-5-(2-((3-methyl-1,1-dioxidothietan-3-yl)amino)-2-oxoacetyl)-1,1a,6,6a-tetrahydrocyclopropa[b]pyrrolizine-3-carboxamide], the half-life was 7.3 h.

On to `Cc1c(C(=O)C(=O)NC2(C#N)CC(F)(F)C2)c2n(c1C(=O)Nc1ccc(F)c(Cl)c1)CCC2` [Example 130, N-(3-chloro-4-fluorophenyl)-7-(2-((1-cyano-3,3-difluorocyclobutyl)amino)-2-oxoacetyl)-6-methyl-2,3-dihydro-1H-pyrrolizine-5-carboxamide], for which the half-life was 6.6 h.

As to `Cc1c(C(=O)C(=O)NC2(c3c[nH]nn3)CC2)c2n(c1C(=O)Nc1cc(F)cc(F)c1)CCC2` [Example 76, 7-(2-((1-(1H-1,2,3-triazol-4-yl)cyclopropyl)amino)-2-oxoacetyl)-N-(3,5-difluorophenyl)-6-methyl-2,3-dihydro-1H-pyrrolizine-5-carboxamide], the half-life was 19.5 h.

In the case of `Cc1c(C(=O)C(=O)NC2(c3c[nH]nn3)CC2)c2n(c1C(=O)Nc1ccc(F)c(F)c1)[C@@H]1C[C@@H]1C2` [Example 81, (1aR,6aR)-5-(2-((1-(1H-1,2,3-triazol-4-yl)cyclopropyl)amino)-2-oxoacetyl)-N-(3,4-difluorophenyl)-4-methyl-1,1a,6,6a-tetrahydrocyclopropa[b]pyrrolizine-3-carboxamide], the half-life is 8 h.

`Cc1c(C(=O)C(=O)NC2(c3c[nH]nn3)CC2)c2n(c1C(=O)Nc1cccc(C(F)F)c1)CCC2` [Example 103, 7-(2-((1-(1H-1,2,3-triazol-4-yl)cyclopropyl)amino)-2-oxoacetyl)-N-(3-(difluoromethyl)phenyl)-6-methyl-2,3-dihydro-1H-pyrrolizine-5-carboxamide]: the half-life is 8.5 h.

`Cc1c(C(=O)C(=O)NC2(C)CS(=O)(=O)C2)c2n(c1C(=O)Nc1cc(F)c(F)c(F)c1)[C@@H]1C[C@@H]1C2` [Example 73, (1aR,6aR)-4-methyl-5-(2-((3-methyl-1,1-dioxidothietan-3-yl)amino)-2-oxoacetyl)-N-(3,4,5-trifluorophenyl)-1,1a,6,6a-tetrahydrocyclopropa[b]pyrrolizine-3-carboxamide]: the half-life is 16.1 h.

Take `Cc1c(C(=O)C(=O)NC2(c3nnn(C)n3)CC2)c2n(c1C(=O)Nc1ccc(F)c(Cl)c1)CCC2` [Example 50, N-(3-chloro-4-fluorophenyl)-6-methyl-7-(2-((1-(2-methyl-2H-tetrazol-5-yl)cyclopropyl)amino)-2-oxoacetyl)-2,3-dihydro-1H-pyrrolizine-5-carboxamide]: the half-life is 15.3 h.

Regarding `Cc1c(C(=O)C(=O)N[C@]2(C)C[S@@+]([O-])C2)c2n(c1C(=O)Nc1ccc(F)c(F)c1)CCC2` [Example 151, N-(3,4-difluorophenyl)-6-methyl-7-(2-(((1r,3r)-3-methyl-1-oxidothietan-3-yl)amino)-2-oxoacetyl)-2,3-dihydro-1H-pyrrolizine-5-carboxamide], the half-life was 5 h.
